Experimental data from the NIST ThermoML archive (doi:10.1021/je050021e).
Numbers after ± are expanded uncertainties.

Key:
[1] = Liquid
[2] = xn = mol fraction of the nth substance listed; conditions: Liquid, x2 = 0

CC(=O)N1CCOCC1 [4-acetylmorpholine]
[1], 101 kPa
Conditions	mass density [kg/m3]	viscosity [mPa·s]
298.15 K	1110.33 ± 0.61	8.48 ± 0.23
303.15 K	1106 ± 0.6	7.1 ± 0.2
313.15 K	1097.35 ± 0.6	5.18 ± 0.15
323.15 K	1088.74 ± 0.59	3.96 ± 0.12
333.15 K	1080.14 ± 0.59	3.12 ± 0.1
343.15 K	1071.55 ± 0.58	2.55 ± 0.08

O [water] + CC(=O)N1CCOCC1
[2], 101 kPa
Conditions	mass density [kg/m3]	viscosity [mPa·s]
298.15 K	–	0.8903 ± 0.029
303.15 K	–	0.7976 ± 0.026
313.15 K	–	0.6531 ± 0.022
323.15 K	988.04 ± 0.53	0.547 ± 0.019
333.15 K	983.12 ± 0.53	0.466 ± 0.017
343.15 K	977.77 ± 0.52	0.4049 ± 0.015

O [water] + COCCOCCOCCOC
[2]
Conditions	mass density, 323.15 K [kg/m3]	mass density, 333.15 K [kg/m3]	mass density, 343.15 K [kg/m3]	viscosity, 303.15 K [mPa·s]	viscosity, 313.15 K [mPa·s]	viscosity, 323.15 K [mPa·s]	viscosity, 333.15 K [mPa·s]	viscosity, 343.15 K [mPa·s]
101 kPa	–	–	–	0.89 ± 0.022	0.6531 ± 0.017	0.547 ± 0.015	0.466 ± 0.013	0.4049 ± 0.011
101.3 kPa	988.04 ± 0.09	983.12 ± 0.09	977.77 ± 0.09	–	–	–	–	–

COCCOCCOCCOC [2,5,8,11-tetraoxadodecane]
[1]
Conditions	mass density, 303.15 K [kg/m3]	mass density, 313.15 K [kg/m3]	mass density, 323.15 K [kg/m3]	mass density, 333.15 K [kg/m3]	mass density, 343.15 K [kg/m3]	viscosity, 303.15 K [mPa·s]	viscosity, 313.15 K [mPa·s]	viscosity, 323.15 K [mPa·s]	viscosity, 333.15 K [mPa·s]	viscosity, 343.15 K [mPa·s]
101 kPa	–	–	–	–	–	1.77 ± 0.04	1.48 ± 0.04	1.26 ± 0.03	1.08 ± 0.03	0.945 ± 0.025
101.3 kPa	975.86 ± 1	966.36 ± 0.99	956.85 ± 0.98	947.32 ± 0.97	937.72 ± 0.96	–	–	–	–	–
